Test results from patent publication US20210002723A1, “METHODS FOR ASSESSING RESPONSIVENESS TO ASTHMA TREATMENT BASED ON VNN-1 EXPRESSION AND PROMOTER METHYLATION” (Children's Hospital Medical Center, priority 2014, published 2021).

Columns and labels:
[1] = system: VNN1−/− mice; assay: Experimental asthma model (repeated HDM exposure), response to dexamethasone in VNN1−/− mice; type: in vivo, mouse; details: dexamethasone 3 mg/kg i.p. last 5 days, mean ± SEM vs HDM-treated group
Protocol: (§1) The VNN1^−/− mice used in this study were described in Pitari et al., FEBS letters 2000; 483:149-54. Age- and sex-matched wild-type BALB/c mice were purchased from Harlan Laboratories (Indianapolis, Ind.). All mice were housed in a specific pathogen-free environment following routine practice.
(§2) Mice were exposed to intranasal doses of HDM (20 ug in 50 ul saline) or saline (0.9% NaCl, 50 ul; control group) 3 times a week for 3 weeks as previously described 18. Mice were treated with intra-peritoneal dexamethasone (3 mg/kg in dimethyl sulfoxide, (DMSO)) or DMSO (100 ul) for the last 5 days of the 3 week model. Airway hyperresponsiveness (AHR) was assessed 24 hours after the last HDM challenge using a flexiVent system (SCIREQ, Montreal, QC, Canada) as previously described. See, e.g., Brandt et al., J Allergy Clin Immunol., 2013; 132:1194-204 e2. Bronchoalveolar lavage fluid (BALF) was collected, processed, and inflammatory cells were quantified analyzed as previously described. See Brandt et al., 2013.
(§3) For the experimental asthma model results, individual AHR, total BALF cell counts and eosinophil percentage in mice treated with HDM plus dexamethasone were compared to and normalized by the corresponding mean value in the HDM-treated group. The data are presented as means±SEM. Difference between the WT and VNN1^−/− group was tested by non-parametric Mann Whitney test. A p-value<0.05 was considered significant. Percentage reduction was used to present the steroid response results.

[2] = system: WT mice; assay: Experimental asthma model (repeated HDM exposure), response to dexamethasone in wild-type mice; type: in vivo, mouse (BALB/c); details: dexamethasone 3 mg/kg i.p. last 5 days, mean ± SEM vs HDM-treated group
Protocol: as §1, §2, §3

C[C@@H]1C[C@H]2[C@@H]3CCC4=CC(=O)C=C[C@]4(C)[C@@]3(F)[C@@H](O)C[C@]2(C)[C@@]1(O)C(=O)CO [Dexamethasone, dexamethasone]
average percentage reduction of AHR ([1]; 50 mg/ml methacholine): 55.2±4.9% | average percentage reduction of AHR ([1]; 100 mg/ml methacholine): 53.3% | reduction in eosinophils (BALF) [1]: 36.1% | reduction in total BALF cells [1]: 40.9% | average percentage reduction of AHR ([2]; 50 mg/ml methacholine challenge): 78.1% | average percentage reduction of AHR ([2]; 100 mg/ml methacholine challenge): 80.2% | reduction in eosinophils (BALF) [2]: 83.6±3.7% | reduction in total BALF cells [2]: 70.0±4.3%
